Like-named read-outs stand apart in the source and are kept apart here.
Key:
[1] = Whole-body glucose measurement in larvae
Larval body length = type: in vivo, Zebrafish (Danio rerio); conditions: 5 dpf, treatment from 2 hpf
Method: (§1) When the regeneration of the tail fins after wounding or the larval body length was used as a readout, chemical treatments of the embryos were started at 2 hours post fertilization (hpf) and continued until 5 dpf. During this period, solutions were refreshed daily. At 5 dpf, larvae were imaged using a LeicaMZ16FA fluorescence stereomicroscope supported by LAS 3.7 software, and the length of the larvae was measured using ImageJ software (15 larvae per treatment group). For the regeneration experiments, tail fins were amputated at 2 dpf and larvae were imaged at 5 dpf (15 larvae per treatment group). The newly grown tissue can be distinguished from the old tissue, enabling precise measurement of the size of the newly grown tissue using ImageJ software.

[2] = system: collagen antibody-induced arthritis (CAIA)
[3] = Whole-body cortisol measurement using ELISA
Method: Zebrafish embryos at 2 hpf received a chemical treatment, as indicated, with daily refreshment of the solutions, until 96 hpf. Then, the treatments were stopped and embryos were incubated in egg water until 5 dpf to avoid cross-reactivity with the compounds of the cortisol antibody used in the ELISA. Then, the treatments were stopped and replaced with egg water. At 5 dpf, the larvae were collected in an Eppendorf tube and 100 μL of ice-cold phosphate-buffered saline (PBS) was added. The larvae were homogenized using a BulletBlender® for 3 min at 8,000 rpm. Ethyl acetate was added to the homogenate and the supernatant was gathered and vaporized. A volume of 150 μl of 0.2% Bovine serum albumin (Sigma Aldrich) dissolved in phosphate-buffered saline (PBS) was added to the samples and frozen. Whole-body cortisol of the zebrafish larvae was determined by ELISA (Demeditec Diagnostics GmbH, Kiel-Wellsee, Germany), following the manufacturer's instructions. In each experiment, three biological replicates were used for each treatment group, and the colorimetric assay was performed using technical duplicates.

IL-6 = assay: CAIA model: serum IL-6 by ELISA; type: in vivo, mouse
Method: All mice received 1.5 mg of a CAIA-cocktail (Chondrex) intravenously on day 1, followed by intraperitoneal (i.p.) injection of 50 μg LPS (Chondrex) on day 4. Mice were randomly divided into six groups. […] Scores were assigned blinded. […] The blood collection on day 14 was performed after 6 h fasting. On day 15, mice were sacrificed using carbon dioxide, and tissue samples were collected that were immediately frozen in liquid nitrogen. Applied humane endpoints were a total body weight loss of >20% in comparison to the day of LPS treatment or reaching an arthritis score of 45.
IL-6 concentrations were determined by ELISA in the serum collected at days 10 and 15, using the IL-6 mouse ELISA kit (Invitrogen), following the manufacturer's protocol. The insulin concentration was determined in serum collected at day 14, using the Ultra-sensitive mouse insulin ELISA kit (Crystal Chem), following the manufacturer's protocol. Corticosterone concentrations were determined in serum collected at day 15, using the Corticosterone HS (high sensitivity) enzyme immunoassay kit (Immunodiagnostic Systems), following the manufacturer's protocol. Expression levels of various GR target genes were determined by qPCR in the tissue samples (homogenized in TRIzol Reagent (ThermoFisher)) collected at day 15.

regenerated tail fin = assay: Regeneration of the tail fin after wounding; type: in vivo, Zebrafish (Danio rerio); conditions: 5 dpf larvae, wounded at 2 dpf
Method: as §1

[4] = system: il1b, il6, mmp9, mmp13, il8 mRNA; assay: qPCR of pro-inflammatory genes after tail wounding; type: in vivo, Zebrafish (Danio rerio)
How it was run: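 3 dpf Tg(mpx:GFP/mpeg1:mCherry) zebrafish larvae were treated with compound or 0.1% DMSO from 2 h before partial tail amputation until 4 h after. mRNA from pools of 15 larvae went to SYBR Green qPCR, normalized to ppial, with fold change versus control by ΔΔCt.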

[5] = 5 dpf larvae treated from 2 hpf, non-wounded

SMILES: C[C@]12C=CC(=O)C=C1CC[C@@H]1[C@@H]2[C@@H](O)C[C@@]2(C)[C@H]1CC[C@]2(O)C(=O)CO[C@@H]1O[C@H](CO[C@@H]2O[C@H](CO)[C@@H](O)[C@H](O)[C@H]2O)[C@@H](O)[C@H](O)[C@H]1O [GbPdn, 21-O-Gentobiose-Prednisolone]
- whole body glucose level [1, 5]: did not affect the glucose or cortisol concentration
- whole body glucose level under wounding conditions ([1]; 5 dpf larvae, wounded at 2 dpf): increase in glucose levels
- larval length (Larval body length): neither did it affect the length of the larvae
- day of maximal effect on arthritis score ([2]; 12.5 mg/kg i.p. daily from day 7): 15 days
- day of maximal effect on arthritis score ([2]; 25 mg/kg i.p. daily from day 7): 14 days
- day of maximal effect on arthritis score ([2]; 50 mg/kg i.p. daily from day 7): 13 days
- arthritis scores after treatment initiation ([2]; all dose groups, daily i.p. from day 7): decreased rapidly after treatment initiation
- whole body cortisol level [3, 5]: did not affect the glucose or cortisol concentration
- whole body cortisol level under wounding conditions ([3]; 5 dpf larvae, wounded at 2 dpf): decrease in cortisol concentration
- serum IL-6 level compared to other treated groups (IL-6; day 10, 12.5 mg/kg): slightly higher IL-6 concentration compared to the other groups
- serum IL-6 level compared to the vehicle group (IL-6; day 10, all treatment groups): significant reduction of the IL-6 level
- serum IL-6 level (IL-6; day 15, 12.5 mg/kg): a very low level was detected in two (out of four) mice
- serum IL-6 level (IL-6; day 15, all groups except 12.5 mg/kg GbPdn): undetectable
- tissue regeneration (length of regenerated tail fin) (regenerated tail fin): small effect
- tissue regeneration with MZ31 (regenerated tail fin; GBA2 inhibitor MZ31): dependent on Gba2 activity
- expression of the pro-inflammatory genes il1b, il6 and il8 [4]: suppression of the expression

— patent publication US20260158149A1, “GLYCOSYLATED PRODRUGS” (UNIVERSITEIT LEIDEN, priority 2021, published 2026)
